From patent publication US11291642B2, “Dimethyl fumarate particles and pharmaceutical compositions thereof” (BIOGEN MA INC., priority 2015, dated 2022)
Where a name gives a salt, the structure may show the parent alone.

Key:
Type in all cases: physicochemical
[1] = Particle size of dimethyl fumarate by Malvern laser diffraction; conditions: for Span: Span=(D90−D10)/D50; for Span / D × 10 (μm) / D × 50 (μm) / D × 90 (μm) / D × 97 (μm) / ≤10 μm: Table 1; for ≤10 μm: fraction of particles ≤10 μm; for d10 / d50 / d90: 350 kg batch, laser diffraction, Table 3
Method: As use herein, the particle size is expressed in terms of volume diameter and the particle size distribution is expressed in terms of D50, D10, D90 and span.
In certain embodiments, the particle size described herein are measured using a laser diffraction technique that correlates light scattering to particle volume on which effective length or effective diameter is calculated. The distribution is based on a measurement of thousands of particles. Particle samples can be in dry form or in slurry. In one embodiment, the instrument used to determine particle size/distribution is a Beckman Coulter LS230 or a Malvern Mastersizer.
As used herein, “D50”, also known as the median diameter, corresponds to the value under which 50% of the particles has a lower volume diameter. “D90” corresponds to the value under which 90% of the particles has a lower volume diameter. “D10” corresponds to the value under which 10% of the particles has a lower volume diameter.
As used herein, “span” is a measure for particle size distribution. It is calculated according to the following equation: Span=(D90−D10)/D50

[2] = FT4 Powder Rheometer dynamic testing (flow rate index, specific energy); conditions: for Flow Rate Index: flow energy at 10 mm/s / 100 mm/s
Method: In certain embodiments, powder characterization described herein can be determined using the FT4 Powder Rheometer (Freeman Technology Ltd, Tewkesbury, UK) with the 25 mm vessel assembly having 23.5 mm diameter blades, vented piston, a segmented rotational shear cell accessory and a 10 or 25 ml borosilicate vessel. Powder testing can be generally divided into three categories: dynamic tests, permeability test and shear test. Dynamic testing uses the 23.5 mm diameter blades and a 25 ml powder sample in the borosiliate test vessel. Powder is filled into the vessel and the blades are simultaneously rotated and moved axially into the powder sample as the axial and rotational forces are measure and used to calculate the dynamic flowability parameters, such as flow rate index (FRI) and Specific Energy (SE). As used herein, the “flow rate index” (or FRI) is a measure of a powder's sensitivity to variable flow rate and is obtained as the ratio of the total energy required to induce powder flow at 10 mm/s and 100 mm/s blade tip speed. A larger deviation from 1 indicates greater sensitivity of a powder to variable flow rate. FRI=Flow Energy@10mm/s/Flow Energy@100mm/s As used herein, “specific energy” or SE is a measure of the powder flow in low stress environment and is derived from the shear forces acting on the blades as they rotate upward through the powder. The SE is recorded as the flow energy of the powder normalized by its weight in mJ/g during the upward spiral movement of the blades in a FT4 Powder Rheometer describe above. A lower SE is an indication of a less cohesive powder and better flow properties. DMF powder characterization was conducted using the FT4 Powder Rheometer (Freeman Technology Ltd, Tewkesbury, UK) using the 25 mm vessel assembly which consists of 23.5 mm diameter blades, vented piston, a segmented rotational shear cell accessory; and a 10 or 25 ml borosilicate vessel. All powders were pre-conditioned by the instrument's built-in conditioning step. Dynamic testing used the 23.5 mm diameter blades and a 25 ml powder sample in the borosilicate test vessel. Powder was filled into the vessel. The blades were simultaneously rotated and moved axially into the powder sample as the axial and rotational forces were measured and used to calculate the dynamic flowability parameters. Among dynamic parameters tested are Flow rate Index (FRI) and Specific Energy (SE). Their measurement techniques are described below: The FRI is a measure of a powder's sensitivity to variable flow rate and it is obtained as the ratio of the total energy required to induce powder flow at 10 mm/s and 100 mm/s blade tip speed. A larger deviation from 1 indicates greater sensitivity of a powder to variable flow rate. SE is a measure of the powder flow in low stress environment and is derived from the shear forces acting on the blades as they rotate upward through the powder. The SE is recorded as the flow energy of the powder normalized by its weight in […] during the upward spiral movement of the blades. A lower SE is an indication of a less cohesive powder and better flow properties.

[3] = FT4 Powder Rheometer shear test (flow function); conditions: for Flow Function: FT4, Table 2, FF=MPS/UYS; for Flow Function (FF): 350 kg batch, FT4, Table 3
Method: Shear testing measures powder shear properties which involves the stress limit required to initiate a powder flow. The shear testing uses a segmented rotational shear cell head and a 10 ml powder sample in the borosilicate test vessel. Powder is filled into the vessel. The shear cell head is simultaneously rotated and moved axially under the powder sample at pre-determined normal stresses as the shear stresses are measured to calculate several parameters, including the flow function (FF). As used herein, “flow function” or FF is a parameter commonly used to rank powder's flowability and is determined using a shear test. The data produced in the shear test represents the relationship between shear stress and normal stress, which can be plotted to define the powder's Yield Locus, which is shown in FIG. 21. Fitting Mohr stress circles to the yield locus identifies the Major Principle Stress (MPS) and Unconfined Yield Strength (UYS). Flow function is the ratio of Major Principle Stress (MPS) to the Unconfined Yield Strength (UYS): FF=MPS/UYS. Usually, powders of low cohesion have higher FF and that represents better flow properties. Shear testing measures powder shear properties which involves the stress limit required to initiate a powder flow. The shear testing used a segmented rotational shear cell head and a 10 ml powder sample in the borosilicate test vessel. Powder was filled into the vessel. The shear cell head was simultaneously rotated and moved axially unto the powder sample at pre-determined normal stresses as the shear stresses were measured to calculate several parameters that include the flow function (FF) and powder cohesion (in kPa). Usually, powders of low cohesion have higher FF and that represents better flow properties.

[4] = FT4, Table 2, no unit printed in table (mJ/g)

| Compound | Span [1] | D × 10 (μm) [1] | D × 50 (μm) [1] | D × 90 (μm) [1] | D × 97 (μm) [1] | ≤10 μm [1] | Flow Rate Index ([2]; FT4, Table 2) | Specific Energy [2, 4] | Flow Function [3] | d10 [1] | d50 [1] | d90 [1] | Flow rate Index (FRI) ([2]; 350 kg batch, FT4, Table 3) | Specific Energy ([2]; 350 kg batch, FT4, Table 3) | Flow Function (FF) [3] |
| --- | --- | --- | --- | --- | --- | --- | --- | --- | --- | --- | --- | --- | --- | --- | --- |
| COC(=O)/C=C/C(=O)OC [Batch A14DS1097, dimethyl fumarate] | 1.772 | 33.1 μm | 87.8 μm | 189 μm | 257 μm | 2.89% | 1.54 | 9.19 | 5.97 |  |  |  |  |  |  |
| COC(=O)/C=C/C(=O)OC [Batch A14DS0977, dimethyl fumarate] | 1.554 | 51.5 μm | 127 μm | 249 μm | 319 μm | 1.87% |  |  |  |  |  |  |  |  |  |
| COC(=O)/C=C/C(=O)OC [2014-4281-A.4, dimethyl fumarate] | 1.562 | 31.9 μm | 96 μm | 182 μm | 235 μm | 2.61% | 1.11 | 4.87 | 5.84 |  |  |  |  |  |  |
| COC(=O)/C=C/C(=O)OC [Batch A14DS0978, dimethyl fumarate] | 1.593 | 44.1 μm | 113 μm | 224 μm | 294 μm | 2.32% | 1.68 | 8.67 | 12.84 |  |  |  |  |  |  |
| COC(=O)/C=C/C(=O)OC [Batch 11P1310, dimethyl fumarate] | 2.05 | 9 μm | 30 μm | 70 μm | 97 μm | 11.48% |  |  |  |  |  |  |  |  |  |
| COC(=O)/C=C/C(=O)OC [2014-4281-A.8, dimethyl fumarate] | 1.71 | 27.2 μm | 70.8 μm | 148 μm | 208 μm | 3.87% | 1.37 | 6.64 | 3.29 |  |  |  |  |  |  |
| COC(=O)/C=C/C(=O)OC [2014-4281-A.9, dimethyl fumarate] | 1.58 | 26.8 μm | 88.2 μm | 166 μm | 210 μm | 3.02% | 1.33 | 6.42 | 2.50 |  |  |  |  |  |  |
| COC(=O)/C=C/C(=O)OC [Run 1, dimethyl fumarate] |  |  |  |  |  |  |  |  |  | 35 μm | 83 μm | 156 μm | 1.61 | 12.21 mJ/g | 10.3 |
| COC(=O)/C=C/C(=O)OC [Batch B1417-140304, dimethyl fumarate] |  |  |  |  |  |  | 1.50 | 5.48 | 2.25 |  |  |  |  |  |  |
| COC(=O)/C=C/C(=O)OC [Run 2, dimethyl fumarate] |  |  |  |  |  |  |  |  |  | 39 μm | 83 μm | 150 μm | 1.39 | 12.18 mJ/g | 4.95 |
